± gives the standard deviation of the averaged measurements.
Assays:
[1] = test system: Homo sapiens (human subject panel, olfactory perception); assay: perceived odor familiarity rating (rating 0-100); higher = more familiar
Method in brief: (§1)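 Values for familiarity, intensity and pleasantness are averaged over subjects. The panel of 55 healthy people aged 18–50 excluded the six lowest performers and rated each paraffin-oil dilution of a molecule at high and low concentrations. Ratings were made only for stimuli the subject reported smelling, on a slider converted to a 0–100 scale.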

[2] = test system: Homo sapiens (human subject panel, olfactory perception); assay: perceived odor pleasantness rating (rating 0-100); higher = more pleasant
Method in brief: as §1

[3] = test system: Homo sapiens (human subject panel, olfactory perception); assay: perceived odor intensity rating (rating 0-100); higher = stronger perceived smell
Method in brief: as §1

[4] = odor dilution in paraffin oil: 1/100,000
[5] = odor dilution in paraffin oil: 1/10,000,000
[6] = odor dilution in paraffin oil: 1/1,000
[7] = odor dilution in paraffin oil: 1/10

| SMILES | perceived odor familiarity rating [1, 4] | perceived odor familiarity rating [1, 5] | perceived odor pleasantness rating [2, 4] | perceived odor pleasantness rating [2, 5] | perceived odor intensity rating [3, 4] | perceived odor intensity rating [3, 5] | perceived odor familiarity rating [1, 6] | perceived odor pleasantness rating [2, 6] | perceived odor intensity rating [3, 6] | perceived odor familiarity rating [1, 7] | perceived odor pleasantness rating [2, 7] | perceived odor intensity rating [3, 7] |
| --- | --- | --- | --- | --- | --- | --- | --- | --- | --- | --- | --- | --- |
| COC(=O)CCSC [Methyl 3-(methylthio)propionate] | 31 ± 25 | 40.3 ± 32 | 41 ± 21 | 43.2 ± 26 | 25.6 ± 28 | 27.7 ± 30 |  |  |  |  |  |  |
| COC(=O)CSC [Methyl (methylthio)acetate] | 38.9 ± 32 |  | 37.7 ± 27 |  | 37.8 ± 31 |  | 45.8 ± 30 | 17.9 ± 24 | 81.7 ± 16 |  |  |  |
| CCC(=O)OC [Methyl Propionate] | 32.6 ± 29 |  | 55.7 ± 20 |  | 19 ± 23 |  | 48.6 ± 31 | 55.8 ± 27 | 38.7 ± 31 |  |  |  |
| COC(=O)c1ccccc1N [Methyl anthranilate] | 56.7 ± 30 |  | 64 ± 25 |  | 58.3 ± 30 |  | 61.8 ± 31 | 65.3 ± 24 | 74.6 ± 18 |  |  |  |
| CC(=O)c1ccc2ccccc2c1 [Methyl beta-naphthyl ketone] |  |  |  |  |  |  | 62.6 ± 27 | 60.7 ± 25 | 63.8 ± 26 | 58 ± 30 | 54.4 ± 30 | 78.8 ± 16 |
| CCCC(=O)OC [Methyl butyrate] | 45.1 ± 32 |  | 27.8 ± 25 |  | 42.8 ± 30 |  | 48.2 ± 29 | 32.9 ± 31 | 79.2 ± 19 |  |  |  |
| CCCCCCCC(=O)OC [Methyl caprylate] | 40.5 ± 26 |  | 50.1 ± 26 |  | 40.6 ± 29 |  | 46.9 ± 32 | 68.5 ± 23 | 47.9 ± 33 |  |  |  |
| CCCCCCC(=O)OC [Methyl heptanoate] | 39.5 ± 30 |  | 53 ± 24 |  | 21.7 ± 28 |  | 48.9 ± 33 | 58.8 ± 25 | 52.9 ± 30 |  |  |  |
| C=C(C)C(=O)OC [Methyl methacrylate] | 37 ± 26 |  | 47.4 ± 26 |  | 15.1 ± 22 |  | 45.7 ± 28 | 39.3 ± 25 | 55 ± 33 |  |  |  |
| COC(=O)c1cccnc1 [Methyl nicotinate] |  |  |  |  |  |  | 43.5 ± 30 | 38.3 ± 24 | 63 ± 26 | 37.2 ± 30 | 38.4 ± 29 | 71.6 ± 28 |
| CCCCCCCCC(=O)OC [Methyl nonanoate] | 45.9 ± 30 |  | 57.9 ± 24 |  | 28.8 ± 30 |  | 50.8 ± 30 | 57.8 ± 26 | 57 ± 28 |  |  |  |
| COC(=O)Cc1ccccc1 [Methyl phenylacetate] | 49.6 ± 30 |  | 42.3 ± 28 |  | 58.1 ± 30 |  | 54 ± 30 | 42.9 ± 30 | 69.1 ± 25 |  |  |  |
| CS(C)(=O)=O [Methyl sulfone] |  |  |  |  |  |  | 39.4 ± 28 | 47.6 ± 20 | 22.7 ± 25 | 51.6 ± 29 | 61.1 ± 24 | 42.4 ± 32 |
| C[S+](C)[O-] [Methyl sulfoxide] |  |  |  |  |  |  | 41.6 ± 29 | 32.1 ± 26 | 35.3 ± 31 | 41.7 ± 33 | 36.7 ± 24 | 50.7 ± 30 |
| CCCC(=O)SC [Methyl thiobutyrate] | 45.1 ± 32 |  | 16.2 ± 22 |  | 69.8 ± 26 |  | 50.2 ± 36 | 4.96 ± 12 | 92.4 ± 14 |  |  |  |
| CCCCCC/C=C/C(=O)OC [Methyl trans-2-nonenoate] | 37.1 ± 26 |  | 56.4 ± 17 |  | 20.3 ± 22 |  | 53.4 ± 27 | 50.3 ± 27 | 49.1 ± 27 |  |  |  |
| CCCCC(=O)OC [Methyl valerate] | 46.1 ± 28 |  | 48.8 ± 28 |  | 49.4 ± 30 |  | 55.1 ± 31 | 42.4 ± 31 | 65.2 ± 26 |  |  |  |
| CC1CCC(=O)C1=O (stereo not given) [Methylcyclopentenolone] |  |  |  |  |  |  | 52.5 ± 34 | 44.6 ± 30 | 72 ± 26 | 63 ± 33 | 35.8 ± 32 | 84.7 ± 18 |

| SMILES | perceived odor familiarity rating [1, 4] | perceived odor familiarity rating [1, 5] | perceived odor pleasantness rating [2, 4] | perceived odor pleasantness rating [2, 5] | perceived odor intensity rating [3, 4] | perceived odor intensity rating [3, 5] | perceived odor familiarity rating [1, 6] | perceived odor pleasantness rating [2, 6] | perceived odor intensity rating [3, 6] | perceived odor familiarity rating [1, 7] | perceived odor pleasantness rating [2, 7] | perceived odor intensity rating [3, 7] |
| --- | --- | --- | --- | --- | --- | --- | --- | --- | --- | --- | --- | --- |
| CCCCCCCC(=O)OCCCCC [N-Amyl octanoate] | 25.1 ± 28 |  | 58.8 ± 24 |  | 19.5 ± 28 |  | 42.3 ± 27 | 48.4 ± 23 | 37.1 ± 26 |  |  |  |
| CC(C)=CCC/C(C)=C\CO [Nerol] | 39.8 ± 33 |  | 48.8 ± 28 |  | 24.3 ± 27 |  | 60.3 ± 30 | 61.4 ± 24 | 71.1 ± 22 |  |  |  |
| COc1ccc2ccccc2c1 [Nerolin Yara Yara] |  |  |  |  |  |  | 58 ± 26 | 61.6 ± 26 | 71.5 ± 22 | 59.7 ± 28 | 54.3 ± 29 | 82.7 ± 15 |
| CC(=O)OC/C=C(/C)CCC=C(C)C [Neryl acetate] |  |  |  |  |  |  | 35.6 ± 28 | 43 ± 18 | 14.7 ± 20 | 49.1 ± 28 | 49.9 ± 26 | 67.2 ± 26 |
| CCCCCCCCCOC(C)=O [Nonyl acetate] |  |  |  |  |  |  | 39 ± 30 | 39.9 ± 19 | 37.1 ± 28 | 46.8 ± 29 | 34.1 ± 27 | 77.8 ± 18 |
| CC(=O)OCCC1=CCC2CC1C2(C)C (stereo not given) [Nopol acetate] | 52.7 ± 31 |  | 66.6 ± 25 |  | 40.7 ± 28 |  | 54.9 ± 30 | 70.6 ± 21 | 53.6 ± 29 |  |  |  |
| CCCCCCCC [Octane] |  |  |  |  |  |  | 27.3 ± 26 | 44.1 ± 25 | 13.9 ± 20 | 46.3 ± 29 | 53.2 ± 25 | 59.6 ± 31 |
| CCCCCCCC(=O)O [Octanoic acid] | 45.3 ± 32 |  | 35.2 ± 20 |  | 49.5 ± 33 |  | 52.1 ± 33 | 26.6 ± 19 | 68.6 ± 26 |  |  |  |
| CCCCCCCCOC(=O)C(C)C [Octyl isobutyrate] | 36 ± 31 |  | 53.4 ± 20 |  | 17.7 ± 20 |  | 38.9 ± 27 | 55.8 ± 21 | 29.9 ± 26 |  |  |  |
| CCCCCCCCOC(=O)CC(C)C [Octyl isovalerate] | 38.3 ± 33 |  | 54.1 ± 21 |  | 23.4 ± 28 |  | 35.1 ± 30 | 39.4 ± 22 | 28.9 ± 33 |  |  |  |
| O=C1CCCCCCCCCCCCCCO1 [Omega-Pentadecalactone] |  |  |  |  |  |  | 32 ± 24 | 54.1 ± 23 | 23 ± 29 | 58.9 ± 28 | 73.5 ± 19 | 57 ± 27 |
| O=C(OCCc1ccccc1)c1ccco1 [Phenethyl 2-furoate] | 40.5 ± 34 |  | 50.6 ± 24 |  | 24.1 ± 30 |  | 52.4 ± 37 | 58.7 ± 25 | 44.8 ± 31 |  |  |  |
| CC(=O)OCCc1ccccc1 [Phenethyl acetate] | 52.2 ± 34 |  | 56.9 ± 24 |  | 38.2 ± 32 |  | 59.1 ± 32 | 54.9 ± 28 | 62.1 ± 28 |  |  |  |
| Nc1ccccc1C(=O)OCCc1ccccc1 [Phenethyl anthranilate] |  |  |  |  |  |  | 27.7 ± 23 | 48.2 ± 19 | 15.1 ± 20 | 50.1 ± 32 | 56.9 ± 24 | 39.9 ± 32 |
| O=C(OCCc1ccccc1)c1ccccc1 [Phenethyl benzoate] |  |  |  |  |  |  | 24.1 ± 21 | 49.4 ± 17 | 19.6 ± 22 | 47.1 ± 31 | 53.6 ± 24 | 38 ± 27 |
| O=C(Cc1ccccc1)OCCc1ccccc1 [Phenethyl phenylacetate] | 31.6 ± 32 |  | 52.9 ± 23 |  | 17.2 ± 24 |  | 32.8 ± 26 | 53.4 ± 23 | 42.5 ± 33 |  |  |  |
| CCC(=O)OCCc1ccccc1 [Phenethyl propionate] | 51.1 ± 30 |  | 52.6 ± 25 |  | 26.4 ± 27 |  | 54.6 ± 32 | 54.6 ± 27 | 49.9 ± 34 |  |  |  |
